# Laboratory results taken from patent publication US6262084A, “Compounds that inhibit the binding of integrins to their receptors” (Texas Biotechnology Corporation, priority 1999, dated 2001).
# Biological target: T1, α4β1 integrin (Homo sapiens, UniProt P05556+P13612)
# T1 construct: Ramos cells fluorescently labeled with calcein; endogenous in cells; host or cells: Ramos cells
# Assay: Inhibition of adhesion of calcein-labeled Ramos cells to CS1 (fibronectin) peptide-conjugated ovalbumin
# Assay type: cell-based
# Conditions: for inhibition at 100 µM: Ramos, compound at a concentration of 100 μM, read-out: % A (percent inhibition of cell adhesion); for IC50: dose required to give 50% inhibition, Ramos cell adhesion to CS1-ovalbumin, 30 minutes at 37° C
# Protocol: The ability of compounds of the present invention to inhibit binding is described in detail hereinafter in the Examples by a procedure in which a 26-amino acid peptide containing the CS1 sequence of fibroncctin with an N-terminal Cys was coupled to maleimide activated ovalbumin. Ovalbumin and CS1 conjugated ovalbumin were coated onto 96-well polystyrene plates at 5 μg/ml in TBS (50 mM Tris, pH 7.5; 150 mM NaCl) at 4° C. for 16 hours. The plates were washed three times with TBS and blocked with TBS containing 3% BSA at room temperature for 4 hours. Blocked plates were washed three times in binding buffer (TBS; 1 mM MgCl2; 1 mM CaCl2; 1 mM MnCl2) prior to assay. Ramos cells fluorescently labeled with calcein AMC-3099 were resuspended in binding buffer (10^7 cells/ml) and diluted 1:2 with same buffer with or without compound. The cells were added immediately to the wells (2.5×10^5 cells/well) and incubated for 30 minutes at 37° C. Following three washes with binding buffer, adherent cells were lysed and quantitated using a fluorometer.
# IC50 is defined as the dose required to give 50% inhibition. The lower the IC50 value and the greater the percentage of inhibition, the more efficient the compound is at prevention of cell adhesion. A stands for inhibition in Table 1, and the percent inhibition indicates the inhibition of cell adhesion when compound is included in the assay at a concentration of 100 μM.
# T1 sequence (P13612 34-1032): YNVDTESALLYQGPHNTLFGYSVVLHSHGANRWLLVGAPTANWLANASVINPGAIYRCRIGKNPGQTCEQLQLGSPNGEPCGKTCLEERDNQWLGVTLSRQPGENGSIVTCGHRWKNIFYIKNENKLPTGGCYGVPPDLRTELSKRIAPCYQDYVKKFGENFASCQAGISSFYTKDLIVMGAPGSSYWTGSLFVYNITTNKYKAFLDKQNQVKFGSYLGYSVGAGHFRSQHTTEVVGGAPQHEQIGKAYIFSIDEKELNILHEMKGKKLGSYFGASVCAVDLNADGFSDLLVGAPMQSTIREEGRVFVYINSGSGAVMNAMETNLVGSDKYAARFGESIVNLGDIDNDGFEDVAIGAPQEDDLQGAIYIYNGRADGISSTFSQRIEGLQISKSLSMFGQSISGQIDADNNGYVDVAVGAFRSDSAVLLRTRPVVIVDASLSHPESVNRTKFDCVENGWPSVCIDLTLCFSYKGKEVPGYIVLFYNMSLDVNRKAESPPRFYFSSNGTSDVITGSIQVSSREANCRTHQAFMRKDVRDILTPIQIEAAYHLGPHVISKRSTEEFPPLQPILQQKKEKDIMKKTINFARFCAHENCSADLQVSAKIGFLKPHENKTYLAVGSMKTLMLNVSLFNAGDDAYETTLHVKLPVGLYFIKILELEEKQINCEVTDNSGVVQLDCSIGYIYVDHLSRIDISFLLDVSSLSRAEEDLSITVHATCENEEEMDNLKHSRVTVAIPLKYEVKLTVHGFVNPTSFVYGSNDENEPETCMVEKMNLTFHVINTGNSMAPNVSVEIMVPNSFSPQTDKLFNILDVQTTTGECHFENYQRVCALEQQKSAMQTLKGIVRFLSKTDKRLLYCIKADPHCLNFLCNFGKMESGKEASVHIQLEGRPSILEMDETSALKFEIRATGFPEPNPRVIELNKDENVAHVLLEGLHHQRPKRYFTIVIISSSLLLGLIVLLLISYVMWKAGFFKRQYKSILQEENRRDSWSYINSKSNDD
# T1 sequence (P05556 21-798): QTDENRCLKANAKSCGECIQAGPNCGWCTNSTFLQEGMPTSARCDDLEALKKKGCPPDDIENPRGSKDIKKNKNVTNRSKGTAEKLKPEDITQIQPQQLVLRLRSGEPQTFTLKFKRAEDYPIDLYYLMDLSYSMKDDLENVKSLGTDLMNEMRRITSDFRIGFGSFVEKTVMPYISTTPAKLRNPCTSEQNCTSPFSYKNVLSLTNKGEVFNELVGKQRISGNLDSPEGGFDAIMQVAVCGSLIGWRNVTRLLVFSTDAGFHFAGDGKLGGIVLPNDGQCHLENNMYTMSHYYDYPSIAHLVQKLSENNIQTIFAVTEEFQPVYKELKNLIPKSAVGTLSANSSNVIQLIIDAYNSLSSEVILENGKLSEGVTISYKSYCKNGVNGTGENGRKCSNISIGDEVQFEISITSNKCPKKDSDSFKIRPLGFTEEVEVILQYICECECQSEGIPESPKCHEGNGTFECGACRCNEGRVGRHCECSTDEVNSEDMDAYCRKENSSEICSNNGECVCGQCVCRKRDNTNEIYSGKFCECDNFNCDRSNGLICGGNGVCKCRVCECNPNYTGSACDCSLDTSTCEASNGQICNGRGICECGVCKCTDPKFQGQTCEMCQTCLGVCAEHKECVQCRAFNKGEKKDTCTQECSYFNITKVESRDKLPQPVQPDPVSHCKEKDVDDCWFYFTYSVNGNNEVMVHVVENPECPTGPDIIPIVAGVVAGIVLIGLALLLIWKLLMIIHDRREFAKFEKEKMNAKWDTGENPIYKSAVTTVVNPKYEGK
SMILES,inhibition at 100 µM (Table 1) [%],IC50 (Table 1) [nM],IC50 (Table 2) [nM]
"CCCC[C@@H](CSc1cccc(NCc2ccccc2C)c1)OC(=O)N[C@@H](CC(=O)O)c1ccc2c(c1)OCO2 [Compound 15, (3S)-3-(1,3-benzodioxol-5-yl)-3-{[({(1S)-1-[({3-[(2-methylbenzyl)amino]phenyl}thio)methyl]pentyl}oxy)carbonyl]amino}propanoic acid]",100,25000,–
"O=C(O)C[C@H](NC(=O)N[C@@H](CCCCNC(=O)OCc1ccccc1)C(=O)NCCc1ccc(O)cc1)c1ccc2c(c1)OCO2 [(9S,13S)-13-(1,3-benzodioxol-5-yl)-9-{[(4-hydroxyphenethyl)amino]carbonyl}-3,11-dioxo-1-phenyl-2-oxa-4,10,12-triazapentadecan-15-oic acid]",100,2000,–
"CSCC[C@@H](CSc1cccc(C)c1)NC(=O)N[C@@H](CC(=O)O)c1ccc2c(c1)OCO2 [(3S)-3-(1,3-benzodioxol-5-yl)-3-[({[(1S)-1-{[(3-methylphenyl)sulfanyl]methyl}-3-(methylsulfanyl)propyl]amino}carbonyl)amino]propanoic acid]",100,300,–
"CC(C)C[C@@H](CSc1ccccc1)NC(=O)N[C@@H](CC(=O)O)c1ccc2c(c1)OCO2 [(3S)-3-(1,3-benzodioxol-5-yl)-3-{[({(1S)-3-methyl-1-[(phenylsulfanyl)methyl]butyl}amino)carbonyl]amino}propanoic acid]",100,2000,–
"CCCC[C@H](NC(=O)N[C@@H](CC(=O)O)c1ccc2c(c1)OCO2)C(=O)NCc1cccs1 [Compound 34, (3S)-3-(1,3-benzodioxol-5-yl)-3-([((1S)-1-[(2-thienylmethyl)amino]carbonylpentyl)amino]carbonylamino)propanoic acid]",–,–,250
CCCC[C@H](NC(=O)N[C@@H](CC(=O)O)c1ccc2c(c1)OCO2)C(=O)NCc1ccc(NCc2ccccc2C)cc1 [Compound 39],–,–,50
"O=C(O)C[C@H](NC(=O)N[C@@H](CCCCNC(=O)OCc1ccccc1)C(=O)NCCCN1CCCC1=O)c1ccc2c(c1)OCO2 [(9S,13S)-13-(1,3-benzodioxol-5-yl)-3,11-dioxo-9-({[3-(2-oxo-1-pyrrolidinyl)propyl]amino}carbonyl)-1-phenyl-2-oxa-4,10,12-triazapentadecan-15-oic acid]",100,3000,–
"CC(C)[C@@H](CSc1ccccc1)NC(=O)N[C@H](CC(=O)O)c1ccc2c(c1)OCO2 [(3R)-3-(1,3-benzodioxol-5-yl)-3-{[({(1S)-2-methyl-1-[(phenylsulfanyl)methyl]propyl}amino)carbonyl]amino}propanoic acid]",83,35000,–
"O=C(O)C[C@H](NC(=O)O[C@@H](CSCc1ccccc1)CSc1ccccc1)c1ccc2c(c1)OCO2 [(3S)-3-(1,3-benzodioxol-5-yl)-3-{[({(1S)-2-(benzylthio)-1-[(phenylthio)methyl]ethyl}oxy)carbonyl]amino}propanoic acid]",100,3000,–
"O=C(O)CSC[C@@H](CSc1ccccc1)NC(=O)N[C@@H](CC(=O)O)c1ccc2c(c1)OCO2 [(3S)-3-(1,3-benzodioxol-5-yl)-3-{[({(1S)-2-[(carboxymethyl)sulfanyl]-1-[(phenylsulfanyl)methyl]ethyl}amino)carbonyl]amino}propanoic acid]",100,2000,–
"CCSC[C@@H](CSc1ccccc1)OC(=O)N[C@@H](CC(=O)O)c1ccc2c(c1)OCO2 [(3S)-3-(1,3-benzodioxol-5-yl)-3-{[({(1S)-2-(ethylthio)-1-[(phenylthio)methyl]ethyl}oxy)carbonyl]amino}propanoic acid]",100,1000,–
"O=C(O)C[C@H](NC(=O)N[C@@H](CC(=O)O)c1ccc2c(c1)OCO2)c1ccc2c(c1)OCO2 [N,N'-bis[(1S)-1-(1,3-benzodioxol-5-yl)-2-carboxyethyl]urea]",99,7000,–
O=C(O)C[C@H](NC(=O)N[C@@H](CCCCNC(=O)OCc1ccccc1)C(=O)NCc1cccs1)C(=O)O [(2S)-2-({[((1S)-5-{[(benzyloxy)carbonyl]amino}-1-{[(2-thienylmethyl)amino]carbonyl}pentyl)amino]carbonyl}amino)butanedioic acid],89,45000,–
"CSCC[C@@H](CSc1ccccc1C)NC(=O)N[C@@H](CC(=O)O)c1ccc2c(c1)OCO2 [(3S)-3-(1,3-benzodioxol-5-yl)-3-[({[(1S)-1-{[(2-methylphenyl)sulfanyl]methyl}-3-(methylsulfanyl)propyl]amino}carbonyl)amino]propanoic acid]",100,300,–
"CSCC[C@@H](CSc1ccc(NC(=O)Nc2ccccc2C)cc1)NC(=O)N[C@@H](CC(=O)O)c1ccc2c(c1)OCO2 [(3S)-3-(1,3-benzodioxol-5-yl)-3-{[({(1S)-3-(methylsulfanyl)-1-[({4-[(2-toluidinocarbonyl)amino]phenyl}sulfanyl)methyl]propyl}amino)carbonyl]amino}propanoic acid]",100,0.9,–
CSCC[C@@H](CSc1ccccc1)NC(=O)NCCC(=O)O [3-{[({(1S)-3-(methylsulfanyl)-1-[(phenylsulfanyl)methyl]propyl}amino)carbonyl]amino}propanoic acid],96,25000,–
CSCC[C@@H](CSc1ccccc1)NC(=O)N[C@H](CSC)CC(=O)O [(3S)-4-(methylsulfanyl)-3-{[({(1S)-3-(methylsulfanyl)-1-[(phenylsulfanyl)methyl]propyl}amino)carbonyl]amino}butanoic acid],99,8000,–
"CC(C)C(NC(=O)N[C@@H](CC(=O)O)c1ccc2c(c1)OCO2)C(Sc1ccccc1)Sc1ccccc1 (stereo partly drawn) [(3S)-3-[({[1-{[bis-(phenylsulfanyl)]methyl}-2-methylpropyl]amino}carbonyl)amino]-3-[(3,4-methylenedioxy)phenyl]propanoic acid]",95,35000,–
"C=CCOC[C@@H](CSc1ccccc1)NC(=O)N[C@@H](CC(=O)O)c1ccc2c(c1)OCO2 [(3S)-3-{[({(1S)-2-(allyloxy)-1-[(phenylthio)methyl]ethyl}amino)carbonyl]amino}-3-(1,3-benzodioxol-5-yl)propanoic acid]",100,300,–
"CCCC[C@@H](CSc1ccccc1)NC(=O)N[C@@H](CC(=O)O)c1ccc2c(c1)OCO2 [(3S)-3-(1,3-benzodioxol-5-yl)-3-{[({(1S)-1-[(phenylsulfanyl)methyl]pentyl}amino)carbonyl]amino}propanoic acid]",100,400,–
"O=C(O)C[C@H](NC(=O)N[C@@H](CSCc1ccccc1)CSc1ccccc1)c1ccc2c(c1)OCO2 [(3S)-3-(1,3-benzodioxol-5-yl)-3-{[({(1S)-2-(benzylsulfanyl)-1-[(phenylsulfanyl)methyl]ethyl}amino)carbonyl]amino}propanoic acid]",100,20,–
"CSCC[C@@H](COc1ccccc1)NC(=O)N[C@@H](CC(=O)O)c1ccc2c(c1)OCO2 [(3S)-3-(1,3-benzodioxol-5-yl)-3-[({[(1S)-3-(methylsulfanyl)-1-(phenoxymethyl)propyl]amino}carbonyl)amino]propanoic acid]",100,20000,–
